Holding throughout (assay): spot-on-lawn antimicrobial activity test
What all share (format): cell-based

Test [1] concerns Escherichia coli ATCC 25922. Here is the method: (§1) In order to evaluate the antimicrobial activity of the purified antimicrobial peptides PG1 and PMAP36 according to the embodiment of the present invention, a spot-on-lawn test was carried out using E. coli ATCC 25922, Pseudomonas aeruginosa ATCC 27853, and Staphylococcus aureus ATCC 29213.
Test [2] deals with Pseudomonas aeruginosa ATCC 27853. Here is the method:
as §1

Test [3] relates to Staphylococcus aureus ATCC 29213. Here is the method:
as §1

Regarding “Protegrin 1 (RGGRLCYCRRRFCVCVGRG) [PG1, recombinantly produced antimicrobial peptide with anti-parallel beta-hairpin structure stabilized by two disulfide bonds, first discovered in pig leucocytes]”, the “Antimicrobial activity assay for the recombinant AMP produced” value in test [1] amounted to 7 µg/mL; in test [2], 15 µg/mL; in test [3], 10 µg/mL.
On the same counts, the results for “pig myeloid antibacterial peptide36 (GRFRRLRKKTRKRLKKIGKVLKWIPPIVGSIPLGCG; listed as Sus scrofa) [PMAP36, recombinantly produced antimicrobial peptide having a helix structure]” are 10 µg/mL, 11 µg/mL and 9 µg/mL.

Values taken from patent US11230575B2, “Insoluble fusion protein comprising antimicrobial peptide and method for producing antimicrobial peptide using same” (Konkuk University Industrial Cooperation Corp., priority 2016, dated 2022).
